Measured values reported in ChEMBL document CHEMBL4411300 (Eur J Med Chem, 2019).

What was measured:
Trypanosoma cruzi [1] = experiment: Trypanocidal activity against Trypanosoma cruzi MHOM/Pe/2011/Arequipa DTU 5 epimastigotes after 48 to 72 hrs by resazurin dye based assay; assay type: functional, organism-based
Trypanosoma cruzi [2] = experiment: Trypanocidal activity against Trypanosoma cruzi IRHOD/CO/2008/SN3 DTU 1 epimastigotes after 48 to 72 hrs by resazurin dye based assay; assay type: functional, organism-based
Trypanosoma cruzi [3] = experiment: Trypanocidal activity against Trypanosoma cruzi TINF/CH/1956/Tulahuen DTU 6 epimastigotes after 48 to 72 hrs by resazurin dye based assay; assay type: functional, organism-based
Vero = experiment: Cytotoxicity against African green monkey Vero cells assessed as reduction in cell viability after 48 to 72 hrs by resazurin dye based assay; conditions: Chlorocebus sabaeus
Trypanosoma cruzi [4] = experiment: Trypanocidal activity against Trypanosoma cruzi MHOM/Pe/2011/Arequipa DTU 5 amastigotes infected in African green monkey Vero cells after 72 hrs by Giemsa-staining based microscopic assay; assay type: functional, organism-based; conditions: MHOM/Pe/2011/Arequipa DTU 5, Vero
Trypanosoma cruzi [5] = experiment: Trypanocidal activity against Trypanosoma cruzi MHOM/Pe/2011/Arequipa DTU 5 trypomastigotes derived from infected Balb/c albino mouse after 24 hrs by resazurin dye based assay; assay type: functional, organism-based; conditions: MHOM/Pe/2011/Arequipa DTU 5, 24 h
[6] = Selectivity index, ratio of IC50 for African green monkey Vero cells to IC50 for Trypanosoma cruzi MHOM/Pe/2011/Arequipa DTU 5 epimastigotes; assay type: toxicity; conditions: read-out: Ratio IC50
[7] = Selectivity index, ratio of IC50 for African green monkey Vero cells to IC50 for Trypanosoma cruzi MHOM/Pe/2011/Arequipa DTU 5 amastigotes infected in African green monkey Vero cells; assay type: toxicity; conditions: read-out: Ratio IC50
[8] = Selectivity index, ratio of IC50 for African green monkey Vero cells to IC50 for Trypanosoma cruzi MHOM/Pe/2011/Arequipa DTU 5 trypomastigotes derived from infected Balb/c albino mouse; assay type: toxicity; conditions: read-out: Ratio IC50
[9] = Selectivity index, ratio of IC50 for African green monkey Vero cells to IC50 for Trypanosoma cruzi IRHOD/CO/2008/SN3 DTU 1 epimastigotes; assay type: toxicity; conditions: read-out: Ratio IC50
[10] = Selectivity index, ratio of IC50 for African green monkey Vero cells to IC50 for Trypanosoma cruzi TINF/CH/1956/Tulahuen DTU 6 epimastigotes; assay type: toxicity; conditions: read-out: Ratio IC50
Trypanosoma cruzi [11] = experiment: Trypanocidal activity against Trypanosoma cruzi IRHOD/CO/2008/SN3 DTU 1 amastigotes infected in African green monkey Vero cells after 72 hrs by Giemsa-staining based microscopic assay; assay type: functional, organism-based; conditions: IRHOD/CO/2008/SN3 DTU 1, Vero
Trypanosoma cruzi [12] = experiment: Trypanocidal activity against Trypanosoma cruzi IRHOD/CO/2008/SN3 DTU 1 trypomastigotes derived from infected Balb/c albino mouse after 24 hrs by resazurin dye based assay; assay type: functional, organism-based; conditions: IRHOD/CO/2008/SN3 DTU 1, 24 h
Trypanosoma cruzi [13] = experiment: Trypanocidal activity against Trypanosoma cruzi TINF/CH/1956/Tulahuen DTU 6 amastigotes infected in African green monkey Vero cells after 72 hrs by Giemsa-staining based microscopic assay; assay type: functional, organism-based; conditions: TINF/CH/1956/Tulahuen DTU 6, Vero
Trypanosoma cruzi [14] = experiment: Trypanocidal activity against Trypanosoma cruzi TINF/CH/1956/Tulahuen DTU 6 trypomastigotes derived from infected Balb/c albino mouse after 24 hrs by resazurin dye based assay; assay type: functional, organism-based; conditions: TINF/CH/1956/Tulahuen DTU 6, 24 h
[15] = Selectivity index, ratio of IC50 for African green monkey Vero cells to IC50 for Trypanosoma cruzi IRHOD/CO/2008/SN3 DTU 1 amastigotes infected in African green monkey Vero cells; assay type: toxicity; conditions: read-out: Ratio IC50
[16] = Selectivity index, ratio of IC50 for African green monkey Vero cells to IC50 for Trypanosoma cruzi IRHOD/CO/2008/SN3 DTU 1 trypomastigotes derived from infected Balb/c albino mouse; assay type: toxicity; conditions: read-out: Ratio IC50
[17] = Selectivity index, ratio of IC50 for African green monkey Vero cells to IC50 for Trypanosoma cruzi TINF/CH/1956/Tulahuen DTU 6 amastigotes infected in African green monkey Vero cells; assay type: toxicity; conditions: read-out: Ratio IC50
[18] = Selectivity index, ratio of IC50 for African green monkey Vero cells to IC50 for Trypanosoma cruzi TINF/CH/1956/Tulahuen DTU 6 trypomastigotes derived from infected Balb/c albino mouse; assay type: toxicity; conditions: read-out: Ratio IC50

With `NCCCNCCN(CCNCCCN)CCNCCCN` the IC50 (Trypanosoma cruzi [1]) was 128 µM, the IC50 (Trypanosoma cruzi [2]) was 124 µM and the IC50 (Trypanosoma cruzi [3]) was 202 µM. For the same molecule, the IC50 (Vero) was 1180 µM.
In the case of `c1ccc(-c2n[nH]cc2CNCCN(CCNCc2c[nH]nc2-c2ccccc2)CCNCc2c[nH]nc2-c2ccccc2)cc1`, the IC50 (Trypanosoma cruzi [1]) is reported as 72.4 µM, the IC50 (Trypanosoma cruzi [2]) is reported as 186 µM and the IC50 (Trypanosoma cruzi [3]) is reported as 88.2 µM. For the same molecule, the IC50 (Vero) was 678 µM.
Work on `CN(C)c1cccc2c(S(=O)(=O)NCCN(CCN)CCN)cccc12` yielded an IC50 (Trypanosoma cruzi [1]) of 65.9 µM, an IC50 (Trypanosoma cruzi [2]) of 101 µM and an IC50 (Trypanosoma cruzi [3]) of 87.4 µM. It also gave an IC50 (Vero) of 137 µM.
`NCCN(CCN)CCNCc1ccc2ccc3cccc4ccc1c2c34` showed an IC50 (Trypanosoma cruzi [1]) of 22.7 µM, an IC50 (Trypanosoma cruzi [2]) of 71 µM and an IC50 (Trypanosoma cruzi [3]) of 21.9 µM. It also gave an IC50 (Vero) of 33.4 µM.
Work on `c1ccc2cc(CNCCN(CCNCc3ccc4ccccc4c3)CCNCc3ccc4[nH]ncc4c3)ccc2c1` yielded an IC50 (Trypanosoma cruzi [1]) of 24 µM, an IC50 (Trypanosoma cruzi [2]) of 15.8 µM and an IC50 (Trypanosoma cruzi [3]) of 14.7 µM. The IC50 (Vero) was 22.3 µM.
With `c1ccc2c(CNCCN(CCNCc3ccnc4ccccc34)CCNCc3ccnc4ccccc34)ccnc2c1` the IC50 (Trypanosoma cruzi [1]) was 11.9 µM, the IC50 (Trypanosoma cruzi [4]) was 20.1 µM and the IC50 (Trypanosoma cruzi [5]) was 14.3 µM. The IC50 (Trypanosoma cruzi [2]) was 25.1 µM, the IC50 (Trypanosoma cruzi [3]) was 23.5 µM and the IC50 (Vero) was 199 µM. The selectivity ratio [6] was 16.7, the selectivity ratio [7] was 9.9 and the selectivity ratio [8] was 13.9. It also gave a selectivity ratio [9] of 7.9 and a selectivity ratio [10] of 8.5.
For `NCCN(CCN)CCNCc1ccc2ccccc2c1`, the IC50 (Trypanosoma cruzi [1]) was 42.5 µM, the IC50 (Trypanosoma cruzi [2]) was 8 µM and the IC50 (Trypanosoma cruzi [11]) was 21.1 µM. The IC50 (Trypanosoma cruzi [12]) was 18.4 µM, the IC50 (Trypanosoma cruzi [3]) was 13.6 µM and the IC50 (Trypanosoma cruzi [13]) was 26.4 µM. For the same molecule, the IC50 (Trypanosoma cruzi [14]) was 19 µM, the IC50 (Vero) was 202 µM and the selectivity ratio [6] was 4.8. The selectivity ratio [9] was 25.4, the selectivity ratio [15] was 9.6 and the selectivity ratio [16] was 11. The selectivity ratio [10] was 14.8, the selectivity ratio [17] was 7.7 and the selectivity ratio [18] was 10.6.
`NCCN(CCN)CCNCc1c2ccccc2cc2ccccc12` showed an IC50 (Trypanosoma cruzi [1]) of 29.6 µM, an IC50 (Trypanosoma cruzi [2]) of 16.2 µM and an IC50 (Trypanosoma cruzi [3]) of 54.7 µM. It also gave an IC50 (Vero) of 20.5 µM.
